pKi: −log10 of the molar value. In brackets after ≈: the same amount, converted by molar mass. Where two headings read alike, the source gives them in different places.
How the values were obtained:
[1] = Solubility test (artificial intestinal juice pH 6.8, 1% DMSO); format: physicochemical; conditions: artificial intestinal juice pH 6.8 with 1% DMSO, fassgf or other biorelevant, kinetic from dmso stock, 25° C.
Experimental: The solubility of a compound was determined under a condition in which 1% DMSO was added. 10 mmol/L compound solution was prepared using DMSO, and then 6 μL of the compound solution was added to 594 μL of artificial intestinal juice in pH 6.8 (to 250 mL of 0.2 mol/L potassium dihydrogen phosphate reagent solution was added 118 mL of 0.2 mol/L NaOH reagent solution and water to provide a final volume of 1000 mL). After standing at 25° C. for 16 hours, the mixed solution was filtered with suction. The filtrate was diluted twice with methanol/water (1/1), and then a concentration in the filtration was measured with HPLC or LC/MS/MS by the absolute calibration method.

CYP3A4 = molecular target: T1, CYP3A4 (Homo sapiens, UniProt P08684); assay: CYP3A4 fluorescence MBI test; format: in vitro ADME; conditions: difference in IC50 with 0 or 30 minutes pre-reaction; CYP3A4 expressed in E. coli, substrate 7-BFC
T1 construct: host or cells: E. coli
In short: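 E. coli-expressed CYP3A4 debenzylating 5.6 μmol/L 7-BFC to fluorescent 7-HFC (Ex 420/Em 535 nm) in K-Pi pH 7.4 at 25° C, 15 min reaction. NADPH pre-incubation of 0 or 30 min, with 10-fold dilution before reaction. IC50 from 0.625–20 μmol/L (6 points); (+) for an IC50 shift ≥5 μmol/L, (−) for ≤3 μmol/L.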

[2] = test system: CYP1A2, CYP2C9, CYP2C19, CYP2D6 and CYP3A4 (one value for the five species); assay: CYP inhibition test, five CYP species together (5CYPs_IC50; pooled human liver microsome); format: in vitro ADME; conditions: human, microsomes
In short: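 Pooled human liver microsomes (0.2 mg/mL) in 50 mM Hepes were incubated with a substrate cocktail of 0.5 μM ethoxyresorufin, 100 μM tolbutamide, 50 μM S-mephenytoin, 5 μM dextromethorphan and 1 μM terfenadine plus NADPH for 15 min at 37 °C. Compound tested at 1–20 μM (4 points). Metabolites read by fluorescence or LC/MS/MS, and IC50 derived by logistic fit against a DMSO control.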

PI3Kγ [3] = molecular target: T2, PI3Kγ (Homo sapiens, UniProt P48736); assay: PI3Kγ inhibitory activity (PI3-kinase HTRF assay, inhibition ratio); format: biochemical; conditions: 0.5 h, compound at 10 μmol/L; read-out: PI3Kg Inhibition Ratio % (10 μM)
In short: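 Compound at 10 μmol/L preincubated 10 min with PI3Kγ and PIP2 substrate, then reacted with ATP for 30 minutes at room temperature; the compound, substrate and ATP figures as printed (40 μmol/L each) are solution concentrations. HTRF 665/620 nm ratio read after 18 hours. Inhibition ratio calculated against no-compound (100%) and no-enzyme (0%) controls.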

[4] = Metabolic stability test (pooled human liver microsome); format: in vitro ADME; conditions: percentage of test compound remained after 30 minutes, pooled human liver microsome 0.5 mg protein/mL, 1 mmol/L NADPH, 37° C., compound 0.5 μM
In short: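 Pooled human liver microsomes (0.5 mg protein/mL) incubated with compound and 1 mmol/L NADPH at 37° C. in pH 7.4 Tris buffer for 0 or 30 min. Parent quantified by LC/MS/MS after methanol/acetonitrile quench; value is % remaining at 30 min versus 0 min.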

AKT phosphorylation = AKT phosphorylation inhibitory activity in MCP-1 stimulated THP-1 cells (sandwich ELISA); format: cell-based, Human; conditions: Homo sapiens, compound at 1 μmol/L, MCP-1 stimulation, read-out: AKT phosphorylation inhibition ratio
In short: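 THP-1 cells (6.7×10^6/mL in HBSS) were preincubated with compound at 1 μmol/L for 5 min at 37 °C, then stimulated for 60 s with HBSS containing 1.2 μg/mL MCP-1 and lysed. Phospho-Akt Ser473/AKT1 sandwich ELISA was read at A450. % inhibition: no compound = 100% activity, no MCP-1 = 0%.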

[5] = BA test (oral absorbability, bioavailability); format: in vivo
Experimental: An experimental material and a method for examining oral absorbability
(1) Animals used: rats or mice were used. (2) Breeding condition: chow and sterilized tap water were allowed to be taken in freely. (3) Setting of a dosage and grouping: a predetermined dosage was administered orally or intravenously. Groups were formed as shown below. (A dosage varied depending on each compound)
Oral administration 1-30 mg/kg (n=2 to 3)
Intravenous administration 0.5-10 mg/kg (n=2 to 3)
(4) Preparation of administered liquid: In oral administration, a solution or suspension was administered. In intravenous administration, after solubilization, the administration was performed. (5) Method of Administration: In oral administration, compulsory administration to the stomach was conducted using an oral probe. In intravenous administration, administration from the caudal vein was conducted using a syringe with an injection needle. (6) Evaluation item: Blood was chronologically collected, and then the drug concentration in blood plasma was measured using a LC/MS/MS. (7) Statistical analysis: With regard to a shift in plasma concentration, the plasma concentration-time area under the curve (AUC) was calculated using a nonlinear least-squares program WinNonlin®. Bioavailability (BA) was calculated from the AUCs of the oral administration group and the intravenous administration group, respectively.

PI3Kδ = PI3Kδ (Homo sapiens, UniProt O00329); assay: PI3Kδ inhibitory activity (Ki value); format: biochemical; conditions: class symbols; read-out: PI3K δ Ki
Experimental: According to Example 2 above, after 80 μg/mL PI-3 kinase γ of the enzyme solution (80 μg/mL PI-3 kinase γ, 10 mmol/L MgCl2, 5 mmol/L DTT) was changed to 158 μg/mL PI-3 kinase δ, a method similar to the method for measuring PI3Kγ inhibitory activity was used to calculate an inhibition ratio, which was defined as the PI3Kδ inhibitory activity.
According to Example 4 above, a Km value for PI3Kδ was determined to calculate a Ki value.

PI3Kβ = PI3Kβ (Homo sapiens, UniProt P42338); assay: PI3Kβ inhibitory activity (Ki value); format: biochemical; conditions: class symbols; read-out: PI3K β Ki
Experimental: According to Example 2 above, after 80 μg/mL PI-3 kinase γ of the enzyme solution (80 μg/mL PI-3 kinase γ, 10 mmol/L MgCl2, 5 mmol/L DTT) was changed to 60 μg/mL PI-3 kinase β, a method similar to the method for measuring PI3Kγ inhibitory activity was used to calculate an inhibition ratio, which was defined as the PI3Kβ inhibitory activity.
According to Example 4 above, a Km value for PI3Kβ was determined to calculate a Ki value.

PI3Kγ [6] = molecular target: T2, PI3Kγ; assay: PI3Kγ inhibitory activity (Ki value); format: biochemical
In short: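 Ki derived from IC50 measured at final compound levels of 50–0.05 μmol/L (HTRF read-out; 40 μmol/L ATP, 10 mmol/L MgCl2, 5 mmol/L DTT), IC50 by logistic or two-point linear fit. ATP Km from Lineweaver-Burk over 0.625–80 μmol/L ATP; Ki = IC50/(1+[ATP]/Km).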

PI3Kα = PI3Kα (Homo sapiens, UniProt P42336); assay: PI3Kα inhibitory activity (Ki value); format: biochemical; conditions: class symbols; read-out: PI3K α Ki
Experimental: According to Example 2 above, after 80 μg/mL PI-3 kinase γ of the enzyme solution (80 μg/mL PI-3 kinase γ, 10 mmol/L MgCl2, 5 mmol/L DTT) was changed to 0.8 μg/mL PI-3 kinase α, an inhibition ratio was calculated by a method similar to the method for measuring PI3Kγ inhibitory activity, and then defined as the PI3Kα inhibitory activity.
The α inhibitory activity (Ki value) of a compound was evaluated according to the following procedure.
According to Example 4 above, a Km value for PI3Kα was determined to calculate a Ki value.

hERG channel (IKr) = molecular target: T3, hERG channel (IKr) (Homo sapiens, UniProt Q12809); assay: hERG test (whole-cell patch-clamp, IKr in HEK293 cells); format: cell-based; conditions: human, HEK293 cells expressing hERG channel, pH 7.4, inhibition of maximum tail current (IKr); for inhibition at 10 min, 1 µM: compound 1 μM
T3 construct: expressed in transfected cells; host or cells: HEK293
In short: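 hERG-expressing HEK293 cells, automated whole-cell patch clamp: hold −80 mV, +50 mV for 2 s, then −50 mV for 2 s to record IKr tail current. Compound in extracellular solution (pH 7.4) for 10 min at room temperature; inhibition of maximum tail current calculated versus pre-application and compared with 0.1% DMSO vehicle.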

T3 sequence (Q12809 whole entry): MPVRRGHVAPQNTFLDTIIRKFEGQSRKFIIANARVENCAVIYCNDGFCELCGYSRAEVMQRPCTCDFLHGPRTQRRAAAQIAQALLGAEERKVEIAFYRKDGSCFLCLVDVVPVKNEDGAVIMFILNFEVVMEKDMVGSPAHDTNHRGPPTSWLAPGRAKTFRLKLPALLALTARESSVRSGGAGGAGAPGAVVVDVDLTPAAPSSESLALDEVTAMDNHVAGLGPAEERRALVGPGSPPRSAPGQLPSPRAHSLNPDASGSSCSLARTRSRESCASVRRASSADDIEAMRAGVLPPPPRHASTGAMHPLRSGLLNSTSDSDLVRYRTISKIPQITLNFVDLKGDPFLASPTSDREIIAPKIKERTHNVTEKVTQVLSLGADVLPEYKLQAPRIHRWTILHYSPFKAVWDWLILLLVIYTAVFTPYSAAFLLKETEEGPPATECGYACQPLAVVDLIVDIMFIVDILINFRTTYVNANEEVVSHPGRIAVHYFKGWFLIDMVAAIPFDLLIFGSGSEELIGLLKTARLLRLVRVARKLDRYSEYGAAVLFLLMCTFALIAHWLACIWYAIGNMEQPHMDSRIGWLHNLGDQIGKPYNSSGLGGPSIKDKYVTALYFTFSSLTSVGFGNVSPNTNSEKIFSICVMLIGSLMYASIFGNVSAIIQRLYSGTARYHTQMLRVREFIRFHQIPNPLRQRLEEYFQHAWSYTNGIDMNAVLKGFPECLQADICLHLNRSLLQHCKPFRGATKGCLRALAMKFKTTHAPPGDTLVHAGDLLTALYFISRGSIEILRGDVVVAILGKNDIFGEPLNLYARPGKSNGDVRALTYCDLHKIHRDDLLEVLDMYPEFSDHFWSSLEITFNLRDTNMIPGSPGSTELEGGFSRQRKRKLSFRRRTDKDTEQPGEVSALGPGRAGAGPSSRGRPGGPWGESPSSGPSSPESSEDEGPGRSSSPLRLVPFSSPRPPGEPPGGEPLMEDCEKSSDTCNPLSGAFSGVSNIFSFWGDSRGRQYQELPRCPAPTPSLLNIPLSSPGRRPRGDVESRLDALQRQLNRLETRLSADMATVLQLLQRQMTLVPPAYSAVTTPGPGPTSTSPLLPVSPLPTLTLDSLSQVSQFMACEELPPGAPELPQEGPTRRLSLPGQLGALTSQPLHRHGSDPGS
T2 sequence (P48736 whole entry, species assumed): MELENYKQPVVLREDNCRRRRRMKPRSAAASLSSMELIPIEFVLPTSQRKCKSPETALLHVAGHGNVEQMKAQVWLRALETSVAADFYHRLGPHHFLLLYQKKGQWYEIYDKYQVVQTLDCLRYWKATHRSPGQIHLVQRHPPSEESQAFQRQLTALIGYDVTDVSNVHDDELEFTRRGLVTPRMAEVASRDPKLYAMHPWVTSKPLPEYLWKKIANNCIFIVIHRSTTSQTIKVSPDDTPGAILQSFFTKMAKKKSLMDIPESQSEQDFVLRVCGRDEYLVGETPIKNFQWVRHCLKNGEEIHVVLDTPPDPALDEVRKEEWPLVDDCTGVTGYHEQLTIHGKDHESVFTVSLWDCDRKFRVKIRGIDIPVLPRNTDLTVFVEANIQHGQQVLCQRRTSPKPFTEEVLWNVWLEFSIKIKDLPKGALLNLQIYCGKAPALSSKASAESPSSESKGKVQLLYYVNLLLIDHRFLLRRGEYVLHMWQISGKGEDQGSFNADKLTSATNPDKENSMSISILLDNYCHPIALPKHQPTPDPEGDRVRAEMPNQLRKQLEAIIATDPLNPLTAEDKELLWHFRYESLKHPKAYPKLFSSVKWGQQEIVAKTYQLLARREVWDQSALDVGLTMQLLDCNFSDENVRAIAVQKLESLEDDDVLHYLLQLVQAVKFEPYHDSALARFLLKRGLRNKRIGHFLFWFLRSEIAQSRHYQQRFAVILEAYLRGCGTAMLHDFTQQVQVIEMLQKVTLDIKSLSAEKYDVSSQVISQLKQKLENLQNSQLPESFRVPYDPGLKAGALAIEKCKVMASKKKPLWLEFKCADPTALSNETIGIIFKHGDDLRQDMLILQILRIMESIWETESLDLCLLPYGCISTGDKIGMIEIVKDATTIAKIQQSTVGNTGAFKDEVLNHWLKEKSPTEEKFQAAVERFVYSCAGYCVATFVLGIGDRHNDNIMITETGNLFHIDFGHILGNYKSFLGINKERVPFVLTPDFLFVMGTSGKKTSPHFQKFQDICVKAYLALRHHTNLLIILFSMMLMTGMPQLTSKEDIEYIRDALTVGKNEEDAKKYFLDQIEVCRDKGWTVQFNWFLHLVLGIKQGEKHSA
T1 sequence (P08684 whole entry): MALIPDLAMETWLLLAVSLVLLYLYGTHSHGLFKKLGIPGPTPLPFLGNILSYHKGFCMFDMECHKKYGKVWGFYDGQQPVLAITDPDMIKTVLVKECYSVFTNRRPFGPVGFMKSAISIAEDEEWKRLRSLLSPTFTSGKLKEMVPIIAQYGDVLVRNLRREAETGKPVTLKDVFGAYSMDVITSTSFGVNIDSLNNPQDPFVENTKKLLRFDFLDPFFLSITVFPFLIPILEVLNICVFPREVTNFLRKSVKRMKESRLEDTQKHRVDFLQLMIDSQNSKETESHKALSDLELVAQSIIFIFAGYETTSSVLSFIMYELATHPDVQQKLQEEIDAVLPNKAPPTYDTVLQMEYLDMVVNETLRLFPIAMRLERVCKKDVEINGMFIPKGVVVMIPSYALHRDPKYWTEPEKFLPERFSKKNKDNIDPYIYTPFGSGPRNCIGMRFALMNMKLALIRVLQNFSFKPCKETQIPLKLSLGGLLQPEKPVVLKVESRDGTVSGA
Sequence of PI3Kβ (P42338 whole entry, species assumed): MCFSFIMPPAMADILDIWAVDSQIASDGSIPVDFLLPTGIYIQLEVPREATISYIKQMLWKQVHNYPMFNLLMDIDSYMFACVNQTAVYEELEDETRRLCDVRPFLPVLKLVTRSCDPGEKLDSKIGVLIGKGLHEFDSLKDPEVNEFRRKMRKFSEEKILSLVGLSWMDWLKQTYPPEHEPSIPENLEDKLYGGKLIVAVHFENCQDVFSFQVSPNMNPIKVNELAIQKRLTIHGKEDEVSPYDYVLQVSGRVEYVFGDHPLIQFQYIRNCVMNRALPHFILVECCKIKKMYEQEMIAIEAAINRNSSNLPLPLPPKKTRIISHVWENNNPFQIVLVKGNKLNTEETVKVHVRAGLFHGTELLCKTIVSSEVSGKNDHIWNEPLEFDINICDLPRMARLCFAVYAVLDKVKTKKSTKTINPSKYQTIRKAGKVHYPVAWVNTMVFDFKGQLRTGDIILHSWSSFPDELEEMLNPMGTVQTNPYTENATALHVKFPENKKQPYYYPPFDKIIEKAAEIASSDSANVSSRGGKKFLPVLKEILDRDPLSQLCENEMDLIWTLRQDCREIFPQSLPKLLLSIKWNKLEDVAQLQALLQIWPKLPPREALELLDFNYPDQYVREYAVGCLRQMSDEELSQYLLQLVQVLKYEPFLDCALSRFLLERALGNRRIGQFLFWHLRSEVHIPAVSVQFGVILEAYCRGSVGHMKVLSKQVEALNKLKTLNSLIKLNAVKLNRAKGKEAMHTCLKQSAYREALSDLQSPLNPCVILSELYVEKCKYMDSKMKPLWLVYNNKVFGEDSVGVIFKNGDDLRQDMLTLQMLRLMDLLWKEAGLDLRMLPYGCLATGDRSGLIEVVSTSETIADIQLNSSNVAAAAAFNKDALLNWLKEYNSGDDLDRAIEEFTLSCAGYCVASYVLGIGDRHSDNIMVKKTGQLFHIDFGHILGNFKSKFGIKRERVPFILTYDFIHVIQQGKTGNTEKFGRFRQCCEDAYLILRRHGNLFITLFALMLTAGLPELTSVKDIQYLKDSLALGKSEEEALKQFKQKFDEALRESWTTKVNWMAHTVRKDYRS
Sequence of PI3Kβ (P27986 whole entry partner, species assumed): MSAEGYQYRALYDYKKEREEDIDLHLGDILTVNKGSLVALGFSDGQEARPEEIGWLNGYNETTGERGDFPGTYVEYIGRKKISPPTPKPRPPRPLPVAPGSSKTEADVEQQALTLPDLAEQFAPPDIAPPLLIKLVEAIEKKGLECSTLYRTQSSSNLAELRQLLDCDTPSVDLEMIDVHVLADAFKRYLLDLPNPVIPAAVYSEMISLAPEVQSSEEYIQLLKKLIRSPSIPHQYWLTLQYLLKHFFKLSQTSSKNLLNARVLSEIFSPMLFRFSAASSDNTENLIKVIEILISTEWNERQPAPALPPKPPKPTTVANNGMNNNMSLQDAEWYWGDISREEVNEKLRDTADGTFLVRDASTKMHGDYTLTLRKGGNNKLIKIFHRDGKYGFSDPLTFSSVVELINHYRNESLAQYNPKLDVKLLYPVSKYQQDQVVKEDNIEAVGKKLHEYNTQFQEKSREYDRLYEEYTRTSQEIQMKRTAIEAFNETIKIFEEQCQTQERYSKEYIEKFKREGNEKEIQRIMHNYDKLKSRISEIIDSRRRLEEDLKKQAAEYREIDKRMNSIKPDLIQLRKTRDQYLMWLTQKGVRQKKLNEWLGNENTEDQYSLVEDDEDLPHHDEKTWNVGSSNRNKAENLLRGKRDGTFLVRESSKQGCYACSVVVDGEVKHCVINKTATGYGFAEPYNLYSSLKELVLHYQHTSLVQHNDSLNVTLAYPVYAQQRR

Row | Compound | solubility at 16 h [1] [µM] | IC50 at 15 min [2] [µM] | inhibition at 10 µM (PI3Kγ [3]) [%] | hLMS_ox(at 0.5 μM) % [4] [%] | also measured
1 | COc1cc(N2CCc3nc(NC(=O)Nc4ccccc4C(=O)N4CCOCC4)sc3C2)nc(OC)n1 [Compound I-10] | > 50 | > 20 | 68 | – | MBI (CYP3A4): (−) (When 3 μmol/L or less, the compound is shown as (−))
2 | COc1cc(N2CCc3nc(NC(=O)Nc4ccccc4CNC(C)C)sc3C2)nc(OC)n1 [Compound I-84] | > 50 | > 20 | – | – | –
3 | COc1cc(N2CCc3nc(NC(=O)Nc4ccccc4C(=O)NC(C)CN(C)C)sc3C2)nc(OC)n1 (centres unmarked) [Compound I-137] | > 50 | – | ≥ 95 | 94.5 | inhibition at 1 µM (AKT phosphorylation): 85%
4 | COc1cc(N2CCc3nc(NC(=O)Nc4ccccc4C(=O)NC(C)C)sc3C2)ccn1 [Compound I-52] | – | – | – | – | MBI (CYP3A4): (−) (When 3 μmol/L or less, the compound is shown as (−)); BA (Rat, 1 mg/kg, Methylcellulose suspension Oral Administration) [5]: 40.9%
5 | C[C@@H](CO)NC(=O)c1ccccc1NC(=O)Nc1nc2c(s1)CN(c1cc[nH]c(=O)c1)CC2 [Compound I-183] | 28.1 (≈ 13.2 µg/mL) | – | 91 | 109 | pKi (PI3Kδ): < 5.52; pKi (PI3Kβ): < 5.52; pKi (PI3Kγ [6]; class symbols, read-out: PI3K γ Ki): ≥ 6.52; pKi (PI3Kγ [6]; read-out: PI3Kγ Ki value): 7.05; pKi (PI3Kα): < 5.52
6 | COc1cc(N2CCc3nc(NC(=O)Nc4ccccc4C(=O)NCC(C)(C)O)sc3C2)nc(OC)n1 [Compound I-158] | 24.9 (≈ 13.1 µg/mL) | – | 86 | 99 | inhibition at 1 µM (AKT phosphorylation): ≥ 95%; inhibition at 10 min, 1 µM (hERG channel (IKr)): 9.2%
7 | COc1cc(N2CCc3nc(NC(=O)Nc4ccccc4C(=O)NC(C)(C)C(=O)O)sc3C2)nc(OC)n1 [Compound I-19] | > 50 | > 20 | ≥ 95 | 87.2 | inhibition at 10 min, 10 µM (hERG channel (IKr); compound 10 μM): 9.5%
8 | CC(C)NC(=O)c1ccccc1NC(=O)Nc1nc2c(s1)CN(c1cnc(N)c(C(F)(F)F)c1)CC2 [Compound I-212] | 14 (≈ 7.27 µg/mL) | ≥ 10 | ≥ 95 | – | inhibition at 1 µM (AKT phosphorylation): ≥ 95%
9 | COc1cc(N2CCc3nc(NC(=O)Nc4ccccc4C(=O)NN(C)C)sc3C2)nc(OC)n1 [Compound I-182] | 19.6 (≈ 9.77 µg/mL) | – | ≥ 95 | 88.1 | inhibition at 1 µM (AKT phosphorylation): ≥ 95%; inhibition at 10 min, 1 µM (hERG channel (IKr)): 4.9%
10 | CCOC(=O)[C@H]1CCC[C@H]1NC(=O)Nc1nc2c(s1)CN(c1cc(OC)nc(OC)n1)CC2 [Compound I-149] | 36.1 (≈ 17.2 µg/mL) | > 20 | – | – | –
11 | COc1cc(N2CCc3nc(NC(=O)Nc4ccccc4C(=O)NC4CCNCC4)sc3C2)nc(OC)n1 [Compound I-202] | > 50 | ≥ 10 | ≥ 95 | 104 | –
12 | CCNC(=O)c1ccncc1NC(=O)Nc1nc2c(s1)CN(c1cnc(OC)c(OC)c1)CC2 [Compound I-103] | 30.1 (≈ 14.6 µg/mL) | – | ≥ 95 | 85.8 | inhibition at 10 min, 1 µM (hERG channel (IKr)): 3.6%
13 | COc1ccc(N2CCc3nc(NC(=O)Nc4ccccc4C(=O)NC(C)CO)sc3C2)cc1OC (centres unmarked) [Compound I-107] | 42.6 (≈ 21.8 µg/mL) | ≥ 10 | – | 98 | inhibition at 10 min, 1 µM (hERG channel (IKr)): 5.4%
14 | COc1cc(N2CCc3nc(NC(=O)NC4CCCCC4C(=O)NC(C)C)sc3C2)nc(OC)n1 (centres unmarked) [Compound I-31] | 32.3 (≈ 16.3 µg/mL) | ≥ 10 | 90 | – | –
